Experimental data as given in patent US20250230193A1, “CYCLIC COMPOUND HAVING SELECTIVE KRAS INHIBITORY EFFECT ON HRAS AND NRAS” (CHUGAI SEIYAKU KABUSHIKI KAISHA, priority 2022, published 2025).
*1 amine or outer side, *2 acyl side, *3 side chain or, on linkers, in order; H or OH if unused. Where a SMILES comes first, the peptide text is derived from it. Bridges are numbered along the chain shown (N, C = ends). [ ]: non-standard residue; d: D form. The star is where a group is joined. hPhe(3-Cl-4-CF3) = N[C@@H](CCc1ccc(C(F)(F)F)c(Cl)c1)C(=O)O; NPrPhe(4-CF3) = CCCN[C@@H](Cc1ccc(C(F)(F)F)cc1)C(=O)O; X4 = CCCN([C@@H](COCCC(C)C)C(=O)[*:2])[*:1]; Abu(4,4,4-F3) = N[C@@H](CC(F)(F)F)C(=O)O; NMeGly(cPent) = CN[C@H](C(=O)O)C1CCCC1; NMeD = CN[C@@H](CC(=O)O)C(=O)O; NMeL = CN[C@@H](CC(C)C)C(=O)O; Morpholide = C1CN(*)CCO1; NMeA = CN[C@@H](C)C(=O)O; Ac5c = NC1(C(=O)O)CCCC1; Aze = O=C(O)[C@@H]1CCN1; Ac4c = NC1(C(=O)O)CCC1; NEtG = CCNCC(=O)O; Sar = CNCC(=O)O

How the values were obtained:
[1] = target: GDP-bound NRAS wild-type protein (Homo sapiens, UniProt P01111); assay: Binding to NRAS by surface plasmon resonance (SPR), Single Cycle Kinetics; conditions: SPR
GDP-bound NRAS wild-type protein, sequence (P01111 whole entry): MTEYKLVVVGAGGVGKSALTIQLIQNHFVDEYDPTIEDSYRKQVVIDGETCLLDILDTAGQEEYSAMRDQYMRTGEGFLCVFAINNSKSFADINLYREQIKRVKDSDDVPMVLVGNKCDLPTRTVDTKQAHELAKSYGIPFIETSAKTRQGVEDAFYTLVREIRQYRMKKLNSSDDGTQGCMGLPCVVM

[2] = target: GDP-bound HRAS wild-type protein (Homo sapiens, UniProt P01112); assay: Binding to HRAS by surface plasmon resonance (SPR), Single Cycle Kinetics; conditions: SPR
GDP-bound HRAS wild-type protein, sequence (P01112 whole entry): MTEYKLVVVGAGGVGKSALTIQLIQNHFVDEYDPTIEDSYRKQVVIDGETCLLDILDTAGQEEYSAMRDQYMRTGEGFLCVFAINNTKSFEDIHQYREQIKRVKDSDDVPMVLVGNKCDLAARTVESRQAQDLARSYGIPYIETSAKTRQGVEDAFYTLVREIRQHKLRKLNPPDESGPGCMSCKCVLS

[3] = KD ratio NRAS/KRAS, GDP-bound wild-type proteins
[4] = KD ratio HRAS/KRAS, GDP-bound wild-type proteins
[5] = KD ratio, GDP-bound NRAS wild-type vs GDP-bound KRAS wild-type
[6] = KD ratio, GDP-bound HRAS wild-type vs GDP-bound KRAS wild-type
[7] = GDP-bound NRAS wild-type vs GDP-bound KRAS wild-type
[8] = GDP-bound HRAS wild-type vs GDP-bound KRAS wild-type

## CC[C@H](C)[C@@H]1NC(=O)[C@H](CC(C)C)N(C)C(=O)C[C@@H](C(=O)N2CCC2)N(C)C(=O)[C@H](C2CCCC2)N(C)C(=O)C2(CCCC2)NC(=O)[C@@H]2CCCN2C(=O)[C@H](CCc2cc(F)c(C(F)(F)F)c(F)c2)NC(=O)CN(C)C(=O)[C@H](Cc2ccc(C(F)(F)F)cc2)N2CCCC[C@@H](C2=O)N(C)C(=O)CN(C)C1=O [PP0570]
[1]; KD ratio NRAS/KRAS
  NRAS/KRAS (ratio of KD value with respect to GDP-bound NRAS wild-type protein to KD value with respect to KRAS): B (a compound having 3 or more and less than 10 is denoted as B)
[2]; KD ratio HRAS/KRAS
  HRAS/KRAS (ratio of KD value with respect to GDP-bound HRAS wild-type protein to KD value with respect to KRAS): B (a compound having 3 or more and less than 10 is denoted as B)

## CCC[C@H]1C(=O)N[C@@H]([C@@H](C)CC)C(=O)N(C)CC(=O)N(C)[C@H]2C/C=C\CCN(C2=O)[C@@H](Cc2ccc(C)cc2)C(=O)N(C)CC(=O)N[C@@H](CCc2ccc(C(F)(F)F)c(OC)c2)C(=O)N2CC3(CC3)C[C@H]2C(=O)NC2(CC(C)(C)C2)C(=O)N(C)[C@@H](CC(C)(C)C)C(=O)N(C)[C@H](C(=O)N(C)C)CC(=O)N1C [PP3009]
[1]; [3]
  NRAS/KRAS (ratio of KD value with respect to GDP-bound NRAS wild-type protein to KD value with respect to KRAS): A (a compound having 10 or more and less than 20 is denoted as A)
[2]; [4]
  HRAS/KRAS (ratio of KD value with respect to GDP-bound HRAS wild-type protein to KD value with respect to KRAS): A (a compound having 10 or more and less than 20 is denoted as A)

## CCC[C@H]1C(=O)N[C@@H]([C@@H](C)CC)C(=O)N2CCC[C@H]2C(=O)N(C)[C@H]2C/C=C\CCN(C2=O)[C@@H](Cc2ccc(C(F)(F)F)cc2)C(=O)N(C)CC(=O)N[C@@H](CCc2cc(F)c(C(F)(F)F)c(F)c2)C(=O)N2C[C@H](OCC)C[C@H]2C(=O)N(C)C2(CCC2)C(=O)N(C)[C@@H](C2CCCC2)C(=O)N(C)[C@H](C(=O)N2CCCC2)CC(=O)N1C [PP3116]
[1]; [3]
  NRAS/KRAS (ratio of KD value with respect to GDP-bound NRAS wild-type protein to KD value with respect to KRAS): A (a compound having 10 or more and less than 20 is denoted as A)
[2]; [4]
  HRAS/KRAS (ratio of KD value with respect to GDP-bound HRAS wild-type protein to KD value with respect to KRAS): A (a compound having 10 or more and less than 20 is denoted as A)

## CCCN1C(=O)CN(C)C(=O)CN(CC)C(=O)[C@H](CC(F)(F)F)NC(=O)[C@H](CC(C)C)N(C)C(=O)C[C@@H](C(=O)N2CCOCC2)N(C)C(=O)[C@H](C2CCCC2)N(C)C(=O)C2(CCCC2)NC(=O)[C@@H]2CCCN2C(=O)[C@H](CCc2ccc(C(F)(F)F)c(Cl)c2)NC(=O)CN(C)C(=O)[C@@H]1Cc1ccc(C(F)(F)F)cc1 [PP0291] ([NMeL][Abu(4,4,4-F3)][NEtG][Sar][NPrPhe(4-CF3)][Sar][hPhe(3-Cl-4-CF3)]P[Ac5c][NMeGly(cPent)][NMeD]-Morpholide; lactam N-11)
[1]; KD ratio NRAS/KRAS
  NRAS/KRAS (ratio of KD for GDP-bound NRAS wild-type to KD for KRAS): B (a compound having 3 or more and less than 10 is denoted as B)
[2]; KD ratio HRAS/KRAS
  HRAS/KRAS (ratio of KD for GDP-bound HRAS wild-type to KD for KRAS): B (a compound having 3 or more and less than 10 is denoted as B)

## CCO[C@@H]1C[C@H]2C(=O)NC3(CCC3)C(=O)N(C)[C@@H](C3CCCC3)C(=O)N(C)[C@H](C(=O)N3CCOCC3)CC(=O)N(C)[C@@H](C)C(=O)N[C@@H]([C@@H](C)CC)C(=O)N(C)CC(=O)N(C)[C@H]3CCCCCN(C3=O)[C@@H](Cc3ccc(F)cc3)C(=O)N(C)CC(=O)N[C@@H](CCc3cc(F)c(C(F)(F)F)c(F)c3)C(=O)N2C1 [PP1175]
[1]; [5]
  NRAS/KRAS (ratio of KD value with respect to NRAS to KD value with respect to KRAS): B (a compound having 3 or more and less than 10 is denoted as B)
[2]; [6]
  HRAS/KRAS (ratio of KD value with respect to HRAS to KD value with respect to KRAS): B (a compound having 3 or more and less than 10 is denoted as B)

## CCO[C@@H]1C[C@H]2C(=O)NC3(CCC3)C(=O)N(C)[C@@H](C3CCCC3)C(=O)N(C)[C@H](C(=O)N(C)C)CC(=O)N(C)[C@@H](CC)C(=O)N[C@@H]([C@@H](C)CC)C(=O)N(C)CC(=O)N(C)[C@H]3CC(C)=CCN(C3=O)[C@@H](Cc3ccc(C(F)(F)F)cc3)C(=O)N(C)CC(=O)N[C@@H](CCc3cc(F)c(C(F)(F)F)c(F)c3)C(=O)N2C1 [PP1034]
[1]; [5]
  NRAS/KRAS (ratio of KD value with respect to NRAS to KD value with respect to KRAS): C (A compound having a KD ratio of 0.1 or more and less than 3 is denoted as C)
[2]; [6]
  HRAS/KRAS (ratio of KD value with respect to HRAS to KD value with respect to KRAS): C (A compound having a KD ratio of 0.1 or more and less than 3 is denoted as C)

## CCCN1C(=O)[C@@H]2CCN2C(=O)[C@H](C)N(C)C(=O)[C@H]([C@@H](C)CC)NC(=O)[C@H](CC(C)C)N(C)C(=O)C[C@@H](C(=O)N2CCOCC2)N(C)C(=O)[C@H](C2CCCC2)N(C)C(=O)C2(CCC2)NC(=O)[C@@H]2CCCN2C(=O)[C@H](CCc2ccc(C(F)(F)F)c(Cl)c2)NC(=O)CN(C)C(=O)[C@@H]1COCCC(C)C [PP1819] ([NMeL]I[NMeA][Aze][X4][Sar][hPhe(3-Cl-4-CF3)]P[Ac4c][NMeGly(cPent)][NMeD]-Morpholide; lactam N-11)
[1]; [5]
  NRAS/KRAS (ratio of KD value for NRAS to KD value for KRAS): C (A compound having a KD ratio of 0.1 or more and less than 3 is denoted as C)
[2]; [6]
  HRAS/KRAS (ratio of KD value for HRAS to KD value for KRAS): C (A compound having a KD ratio of 0.1 or more and less than 3 is denoted as C)

## CCO[C@H](C)[C@@H]1NC(=O)[C@H](CC(C)C)N(C)C(=O)C[C@@H](C(=O)N(C)CC)N(C)C(=O)[C@H](C2CCCC2)N(C)C(=O)C2(CC(C)(C)C2)NC(=O)[C@@H]2C[C@H](C)CN2C(=O)[C@H](CCc2ccc(C(F)(F)F)c(OC)c2)NC(=O)CN(C)C(=O)[C@H](Cc2ccc(C)cc2)N2CC/C=C\C[C@@H](C2=O)N(C)C(=O)CN(C)C1=O [PP2413]
[1]; [7]
  NRAS/KRAS (ratio of KD value with respect to NRAS to KD value with respect to KRAS): A (a compound having 10 or more and less than 20 is denoted as A)
[2]; [8]
  HRAS/KRAS (ratio of KD value with respect to HRAS to KD value with respect to KRAS): A (a compound having 10 or more and less than 20 is denoted as A)

## CCC(CC)[C@H]1C(=O)N(C)[C@H](C(=O)N(C)C)CC(=O)N(C)[C@@H](COC)C(=O)N[C@@H]([C@@H](C)CC)C(=O)N(C2CC2)CC(=O)N(C)[C@H]2C/C=C\CCN(C2=O)[C@@H](Cc2ccc(C)cc2)C(=O)N(C)CC(=O)N[C@@H](CCc2ccc(Cl)c(Cl)c2)C(=O)N2C[C@H](OC(C)C)C[C@H]2C(=O)NC2(CC(C)(C)C2)C(=O)N1C (stereo in doubt) [PP2509]
[1]; [7]
  NRAS/KRAS (ratio of KD value with respect to NRAS to KD value with respect to KRAS): AA (a compound having 20 or more is denoted as AA)
[2]; [8]
  HRAS/KRAS (ratio of KD value with respect to HRAS to KD value with respect to KRAS): A (a compound having 10 or more and less than 20 is denoted as A)

## CCCOC[C@H]1C(=O)N[C@@H]([C@@H](C)CC)C(=O)N(C)CC(=O)N(C)[C@H]2C/C=C\CCN(C2=O)[C@@H](Cc2ccc(C)cc2)C(=O)N(C)CC(=O)N[C@@H](CCc2ccc(C(F)(F)F)c(Cl)c2)C(=O)N2C[C@@H](C)C[C@H]2C(=O)NC2(CC(C)(C)C2)C(=O)N(C)[C@@H](C2CCCC2)C(=O)N(C)[C@H](C(=O)N(C)CC)CC(=O)N1C [PP2467]
[1]; [7]
  NRAS/KRAS (ratio of KD value with respect to NRAS to KD value with respect to KRAS): A (a compound having 10 or more and less than 20 is denoted as A)
[2]; [8]
  HRAS/KRAS (ratio of KD value with respect to HRAS to KD value with respect to KRAS): B (a compound having 3 or more and less than 10 is denoted as B)

## CC[C@H](C)[C@@H]1NC(=O)[C@H](CC)N(C)C(=O)C[C@@H](C(=O)N(C)C)N(CC)C(=O)[C@H](C2CCCC2)N(C)C(=O)C2(CCC2)NC(=O)[C@@H]2CCN2C(=O)[C@H](CCc2cc(F)c(C(F)(F)F)c(F)c2)NC(=O)CN(C)C(=O)[C@H](Cc2ccc(C(F)(F)F)cc2)N2CCCC[C@@H](C2=O)N(C)C(=O)CN(C)C1=O [PP0660]
[1]; KD ratio NRAS/KRAS
  NRAS/KRAS (ratio of KD value with respect to GDP-bound NRAS wild-type protein to KD value with respect to KRAS): B (a compound having 3 or more and less than 10 is denoted as B)
[2]; KD ratio HRAS/KRAS
  HRAS/KRAS (ratio of KD value with respect to GDP-bound HRAS wild-type protein to KD value with respect to KRAS): B (a compound having 3 or more and less than 10 is denoted as B)
